From ChEMBL document CHEMBL2346612, “Pregna-5,17(20)-dien-21-oyl amides affecting sterol and triglyceride biosynthesis in Hep G2 cells” (Bioorg Med Chem Lett, 2013)
Active and inactive are the calls of the source. No cut-off for these calls is given here.

How the values were obtained:
[1] = Cytotoxicity against human HepG2 cells assessed as cell viability after 48 hrs by MTT assay; assay type: cell-based; design: concentration or dose not given beside the values; conditions: read-out: Activity
HepG2 [2] = assay: Stimulation of triglyceride biosynthesis in human HepG2 cells incubated at 5 uM for 14 hrs followed by sodium [14C]-acetate addition measured after 4 hrs; assay type: functional, cell-based
HepG2 [3] = assay: Effect on sterol biosynthesis in human HepG2 cells at 30 uM; assay type: functional, cell-based
HepG2 [4] = assay: Reduction in cholesterol biosynthesis in human HepG2 cells incubated at 5 uM for 14 hrs followed by sodium [14C]-acetate addition measured after 4 hrs; assay type: functional, cell-based
HepG2 [5] = assay: Effect on triglyceride biosynthesis in human HepG2 cells at 30 uM; assay type: functional, cell-based
HepG2 [6] = assay: Cytotoxicity against human HepG2 cells assessed as cell viability up to 2 uM after 48 hrs by MTT assay; assay type: cell-based; conditions: hepg2, 48 h
HepG2 [7] = assay: Stimulation of triglyceride biosynthesis in human HepG2 cells incubated at 2 uM for 14 hrs followed by sodium [14C]-acetate addition measured after 4 hrs; assay type: functional, cell-based
HepG2 [8] = assay: Reduction in cholesterol biosynthesis in human HepG2 cells incubated at 2 uM for 14 hrs followed by sodium [14C]-acetate addition measured after 4 hrs; assay type: functional, cell-based

| Compound | viability at 48 h [1] | Activity (HepG2 [2]) | Activity (HepG2 [3]) | Activity (HepG2 [4]) | Activity (HepG2 [5]) | Activity (HepG2 [6]) | Activity (HepG2 [7]) | Activity (HepG2 [8]) |
| --- | --- | --- | --- | --- | --- | --- | --- | --- |
| CC(CO)(CO)NC(=O)/C=C1/CC[C@H]2[C@@H]3CC=C4C[C@@H](O)CC[C@]4(C)[C@H]3CC[C@]12C | > 70% | inactive | inactive | inactive | inactive | – | – | – |
| CC(C)CCNC(=O)/C=C1\CC[C@H]2[C@@H]3CC=C4C[C@@H](O)CC[C@]4(C)[C@H]3CC[C@]12C | > 70% | Active | inactive | Active | inactive | – | – | – |
| C[C@H](CCCC(C)(C)O)[C@H]1CC[C@H]2[C@@H]3CC=C4C[C@@H](O)CC[C@]4(C)[C@H]3CC[C@]12C | > 70% | – | inactive | – | inactive | Non-toxic | Active | Active |
| CC(CO)(CO)NC(=O)/C=C1\CC[C@H]2[C@@H]3CC=C4C[C@@H](O)CC[C@]4(C)[C@H]3CC[C@]12C | > 70% | – | inactive | – | inactive | – | – | – |
| C[C@]12CC[C@H](O)CC1=CC[C@@H]1[C@@H]2CC[C@]2(C)/C(=C\C(=O)NC(CO)(CO)CO)CC[C@@H]12 | > 70% | inactive | inactive | inactive | inactive | – | – | – |
| CC(C)(CO)NC(=O)/C=C1\CC[C@H]2[C@@H]3CC=C4C[C@@H](O)CC[C@]4(C)[C@H]3CC[C@]12C | > 70% | – | inactive | – | inactive | – | – | – |
| COC(=O)CNC(=O)/C=C1\CC[C@H]2[C@@H]3CC=C4C[C@@H](O)CC[C@]4(C)[C@H]3CC[C@]12C | > 70% | Active | inactive | inactive | inactive | – | – | – |
| C[C@]12CC[C@H](O)CC1=CC[C@@H]1[C@@H]2CC[C@]2(C)/C(=C/C(=O)NCCO)CC[C@@H]12 | > 70% | Active | inactive | Active | inactive | – | – | – |
| CN(C)C(=O)CNC(=O)/C=C1\CC[C@H]2[C@@H]3CC=C4C[C@@H](O)CC[C@]4(C)[C@H]3CC[C@]12C | > 70% | Active | inactive | Active | inactive | – | – | – |
| CC(C)(CO)NC(=O)/C=C1/CC[C@H]2[C@@H]3CC=C4C[C@@H](O)CC[C@]4(C)[C@H]3CC[C@]12C | > 70% | inactive | inactive | inactive | inactive | – | – | – |
| C[C@]12CC[C@H](O)CC1=CC[C@@H]1[C@@H]2CC[C@]2(C)/C(=C\C(=O)NCCO)CC[C@@H]12 | > 70% | inactive | inactive | inactive | inactive | – | – | – |
| CC(C)CCNC(=O)/C=C1/CC[C@H]2[C@@H]3CC=C4C[C@@H](O)CC[C@]4(C)[C@H]3CC[C@]12C | > 70% | inactive | inactive | inactive | inactive | – | – | – |
| C[C@]12CC[C@H](O)CC1=CC[C@@H]1[C@@H]2CC[C@]2(C)/C(=C/C(=O)NC(CO)(CO)CO)CC[C@@H]12 | > 70% | – | inactive | – | inactive | – | – | – |
